Series [1] has as its system Sprague-Dawley rat bone marrow cells. Description: Rat micronucleus test. Particulars: positive control 20 mg/kg/day P.O., 24 hours after dosing. As for the experimental part: Hair was removed from the administration site (subcutaneous) of the SD rats, the administration concentration of the example compounds were set to a low dose (500 mg/kg/day), a medium dose (1000 mg/kg/day), and a high dose (2000 mg/kg/day), and administered subcutaneously to the left and right […] of the test system (10 ml/kg/day each), and the compound was administered subcutaneously in divided doses to the left and right […] of the test system (10 ml/kg/day each).
24 hours after the second administration of the test substance, the femur was removed from each group to collect bone marrow cells. 0.5 mL of 10% neutral formalin was added to the bone marrow cell suspension, fixed for 5 minutes, centrifuged for 5 minutes (4° C., 1,000 rpm, Micro17TR, Hanil Science Industrial, Republic of Korea) to remove the supernatant. Then, 0.3 mL of 10% neutral formalin was added to the precipitated bone marrow cells, suspended, filtered through a cell strain, and transferred to a storage tube. The fixed bone marrow cell suspension was dropped onto a cover glass, and then covered with a slide glass coated with 20 μL of 0.05% acridine orange to prepare an observation slide. The observation slide was observed under a microscope (600× magnification, BX51, Olympus, Japan).
As an indicator of bone marrow cell proliferation inhibition, 500 total red blood cells per individual were observed, and the ratio of polychromatic red blood cells to total red blood cells (PCE/(PCE+NCE)) was calculated. As a positive control, cyclophosphamide (Cas No: 50-18-0) was administered at a dose of 20 mg/kg/day.

Series [2] in a line: General symptoms and body weight in the rat micronucleus study. It is filed as in vivo. Particulars: positive control 20 mg/kg/day P.O. Here is the method:
In addition, body weight was measured on the day of administration start and bone marrow collection to confirm presence/absence of changes due to administration of the substance, and the results are shown in Table 4 below.

For another series, the system named is P. gingivalis. The series can be described thus: Inhibitory effect on P. gingivalis biofilm formation (crystal violet, OD590nm). It is filed as cell-based, Porphyromonas gingivalis. Particulars: 48 hours; for biofilm formation of P. gingivalis increased by DPD: DPD 10 μM + compound 0.002, 0.02, 0.2, 2 μM, anaerobic, OD590nm.
Series [3] is described as follows: Plasma stability in human plasma (LC-MS/MS). In kind it is in vitro ADME. The note with it: 37° C., 0, 30, 60, 120, 240 minutes. Here is the method:
(§1) The compounds of Examples 1-2 and Comparative Example, and the substance used as the positive control (Eucatropine, Loterpresnol) were dissolved in DMSO to prepare a stock solution having a concentration of 10 mM. The stock solution of each test substance was then diluted to prepare 0.2 mM and 1 mM working solutions and used for the test (For the comparative example compound, 70% acetonitrile was used as a solvent, and for the compound of Example 1-2, 50% acetonitrile was used as a solvent).
(§2) The positive control and the standard solution of the test substance were placed in tubes containing two types of plasma (human and rat) at concentrations of 1 μM and 5 μM, respectively, and then incubated at 37° C. for a prescribed time (0, 30, 60, 120, 240 minutes) while shaking and mixing. At each time point, the mixture sample was dispensed in 100 μl increments into a cell culture plate (96-well plate) containing 400 μl of quench reagent to terminate the test, After centrifugation (5000×g, 10 min), 100 μl of the supernatant was taken out, mixed with 200 μl of ultrapure water, and the solution was then injected into a LC-MS/MS system to analyze the drug in each time zone. Thereby, the plasma stability of the compounds of Comparative Example and Example 1-2 was evaluated.

The nature of series [4]: Plasma stability in rat plasma (LC-MS/MS). In kind it is in vitro ADME. Particulars: 37° C., 0, 30, 60, 120, 240 minutes. As for the experimental part: as §1, §2
For series [5], the system named is gingipain genes (rgpA, rgpB, kgp). The series can be described thus: Inhibitory effect on gingipain expression of P. gingivalis (RT-qPCR). In kind it is cell-based, Porphyromonas gingivalis. Particulars: 48 hours. As for the experimental part:
The compounds of Examples were respectively treated onto the medium cultured with P. gingivalis, and the expression levels of three gingipain proteins (lysine-gingipain (Kgp), arginine-gingipain A (RgpA), and arginine-gingipain B (RgpB)) produced by P. gingivalis, which are major virulence factors and proteolytic enzymes, were confirmed.
The culture medium containing 10 μM of DPD (4,5-dihydroxy-2,3-pentane dione), which is a precursor of the bacterial signal substance (Autoinducer-2), and the culture medium containing 2 μM of the example compound or not were respectively dispensed into a cell culture plate (48 well plate), and then P. gingivalis (2×10^8 cell/ml) were inoculated for each group. The culture medium cultured with bacteria was cultured at 37° C. under anaerobic conditions (10% H2, 10% CO2, and 80% N2) for 48 hours.
After 48 hours, each culture medium was centrifuged at 13,000 rpm for 1 minute to remove the supernatant, and total RNA was extracted using easy-BLUE™ Total RNA Extraction kit (iNtRON Biotechnology, Sungnam, Korea) to synthesize cDNA, and then the expression of the gingipain gene was confirmed by real-time PCR method. cDNA was synthesized using AccuPower® CycleScript RT PreMix dN6 (Bioneer, Daejeon, Korea), and real-time (quantitative) reverse transcription PCR (RT-qPCR) was carried out using Power SYBR™ Green PCR Master Mix (Applied Biosystems, Foster City, CA, USA).
RT-qPCR amplification conditions were as follows: after enzyme activation at 95° C. for 3 minutes, denaturation at 95° C. for 10 seconds and primer annealing at 60° C. for 30 seconds were repeated 40 times, and analysis was performed using a Bio-Rad CFX Connect Real-Time PCR Detection System (Bio-Rad, Hercules, CA, USA). To normalize the expression level of the gingipain gene, the 16s rRNA gene was used, and the gene expression level was calculated using the Comparative Ct Method (ΔΔCt), which is shown in FIGS. 5a to 5c.

Where “and” joins values, the source holds several entries; their conditions need not be identical. Equal values may be shown once.

On to `O=P1(N(CCCl)CCCl)NCCCO1` (stereo not shown) [CPA, cyclophosphamide], for which, in series [1] (group mean), the “MNPCE/PCE, %(Mean)” value was determined as 3.060% and the “PCE/(PCE+NCE), %(Mean)” value is reported as 33.5%. The “PCE/(PCE+NCE): PCE count” value in series [1] (individual animals, per 500 total red blood cells) was 166 and 170. Moreover, the “MNPCE/PCE: MNPCE count” value in series [1] (individual animals, per 4,000 PCE) was 150 and 154 and 167 (2×). Also, the “Body weight (g) 1 day after 2nd dosing, Mean” value in series [2] (administered once, group mean) is given as 278.9 g. In addition, the “Body weight (g) 1 day after 2nd dosing” value in series [2] (administered once, individual animals 1501-1505) was 279.4 g and 281.5 g. Also, the “Body weight (g) before 1st dosing, Mean” value in series [2] (group mean) was 266.8 g. Moreover, the “Body weight (g) before 1st dosing” value in series [2] (individual animals 1501-1505) turned out to be 282.2 g.
For the compound `O=C1O/C(=C(\Br)c2ccccc2)c2ccccc21` [Comparative Example, (Z)-3-(bromo (phenyl)methylene) isobenzofuran-1 (3H)-one, reference compound], the “biofilm formation of P. gingivalis increased by DPD” value in the series on P. gingivalis was “inhibited in a concentration-dependent manner”. For the same compound, the “amount of the compound remaining in the plasma” value in series [3] and in series [4] was “decreased over time” each time.
`CC(=O)C(=O)C(O)CO` (stereo not shown) [DPD, 4,5-dihydroxy-2,3-pentanedione, reference compound]: the “biofilm formation of P. gingivalis” value with P. gingivalis (DPD 10 μM alone compared to medium with PBS (CT)) is “significantly increased”. For the same compound, in series [5] (DPD 10 μM alone compared with untreated control), the “expression levels of three gingipain genes (rgpA, rgpB, kgp)” value is “increased more than in the control group”.
For `CN1C(=O)c2ccccc2C1=C(c1ccccc1)c1ccccc1` [Example 1-1, 3-(diphenylmethylene)-2-methylisoindolin-1-one], the “biofilm formation of P. gingivalis increased by DPD” value in the series on P. gingivalis was “inhibited in a concentration-dependent manner”. The “expression levels of three gingipain genes (rgpA, rgpB, kgp) increased by DPD” value in series [5] (DPD 10 μM + compound 2 μM, normalized to 16s rRNA) is listed as “reduced”.
`COc1ccc(C(=C2c3ccccc3C(=O)N2C)c2ccc(OC)cc2)cc1` [Example 1-3, 3-(bis(4-methoxyphenyl)methylene)-2-methylisoindolin-1-one]: the “biofilm formation of P. gingivalis increased by DPD” value in the series with P. gingivalis is recorded as “inhibited in a concentration-dependent manner”.

These data come from patent US20250134860A1, “NOVEL COMPOUND, AND COMPOSITION FOR PREVENTING, ALLEVIATING OR TREATING BACTERIAL INFLAMMATION AND INFLAMMASOME-MEDIATED DISEASES, COMPRISING SAME AS ACTIVE INGREDIENT” (Quorum Bio Co., Ltd., priority 2022, published 2025).
